From US20250129344A1, “MODIFIED GLUTAMATE DEHYDROGENASE AND APPLICATION THEREOF” (Hunan Lier Biotech Co., Ltd., priority 2021, published 2025)
Residue numbers refer to the chain shown, from its start.

Key:
Assay in all cases: Dynamic properties (Michaelis-Menten) of LsGluDH mutant, PPO reductive amination
Format in all cases: biochemical
Details in all cases: PPO 5-100 mM, NADPH 0.15 mM, NH4Cl 50 mM, PBS pH 7.5, 30° C., diluted crude enzyme, 340 nm
[1] = biological target: T1, Lysinibacillus sphaericus glutamate dehydrogenase (LsGluDH, SEQ ID NO: 2) variant A175G-A182R, SEQ ID NO: 36 (Lysinibacillus pinottii, UniProt A0ABT2DNY0, A175G/A182R)
T1 sequence (A0ABT2DNY0 1-457 A175G/A182R): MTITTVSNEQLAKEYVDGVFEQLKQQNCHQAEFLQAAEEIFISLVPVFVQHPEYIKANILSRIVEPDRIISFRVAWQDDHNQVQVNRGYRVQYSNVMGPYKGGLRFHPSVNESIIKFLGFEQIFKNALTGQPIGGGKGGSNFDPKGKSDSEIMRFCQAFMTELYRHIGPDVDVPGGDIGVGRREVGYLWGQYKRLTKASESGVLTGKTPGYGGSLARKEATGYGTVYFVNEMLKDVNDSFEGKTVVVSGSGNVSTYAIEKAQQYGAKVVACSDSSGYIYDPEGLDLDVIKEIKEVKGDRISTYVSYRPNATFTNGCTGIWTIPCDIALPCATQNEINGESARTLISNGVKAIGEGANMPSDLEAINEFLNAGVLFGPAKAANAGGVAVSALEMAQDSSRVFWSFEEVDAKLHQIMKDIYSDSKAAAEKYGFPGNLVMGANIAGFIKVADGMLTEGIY
Method: (§1) A plurality of reaction systems (200 μL) comprising PBS of 100 mM pH 7.5 (pH was adjusted with aqueous ammonia solution), NADPH (reductive) of 0.15 mM, NH4Cl of 50 mM, diluted (500 folds) crude enzyme solution of 10% volume and the substrate PPO at various concentrations (5-100 mM) were formulated on a 96-well plate. The intensity of the UV absorption at 340 nm was detected at 30° C., and the rate of change in absorption over time (mA/min) was recorded. The obtained parameters were plugged into Michaelis-Menten equation, in which the reaction velocity was calculated with the rate of change in absorption.
(§2) The mutants were prepared with the coding nucleic acid of LsGluDH (SEQ ID NO: 2) as the template, and the enzyme activities and the dynamic parameters Vmax and Km were measured, according to the method of Example 1. The resulted mutants and the enzyme activities and the dynamic parameters thereof are shown in Table 2, and the relative enzyme activity means the percentage of the enzyme activity of the mutant to the enzyme activity of the mutant of SEQ ID NO: 31.

[2] = biological target: T2, Lysinibacillus sphaericus glutamate dehydrogenase (LsGluDH, SEQ ID NO: 2) variant A175G-P132L, SEQ ID NO: 32 (Lysinibacillus pinottii, UniProt A0ABT2DNY0, A175G/P132L)
T2 sequence (A0ABT2DNY0 1-457 P132L/A175G): T1 sequence (A0ABT2DNY0 1-457 A175G/A182R) with P132L, R182A
Method: as §1, §2

[3] = biological target: T3, Lysinibacillus sphaericus glutamate dehydrogenase (LsGluDH, SEQ ID NO: 2) variant A175G-V173G, SEQ ID NO: 35 (Lysinibacillus pinottii, UniProt A0ABT2DNY0, A175G/V173G)
T3 sequence (A0ABT2DNY0 1-457 V173G/A175G): T1 sequence (A0ABT2DNY0 1-457 A175G/A182R) with V173G, R182A
Method: as §1, §2

[4] = biological target: T4, Lysinibacillus sphaericus glutamate dehydrogenase (LsGluDH, SEQ ID NO: 2) variant A175G-V173G-A182R, SEQ ID NO: 37 (Lysinibacillus pinottii, UniProt A0ABT2DNY0, A175G/A182R/V173G)
T4 sequence (A0ABT2DNY0 1-457 V173G/A175G/A182R): T1 sequence (A0ABT2DNY0 1-457 A175G/A182R) with V173G
Method: as §1, §2

In the case of `CP(=O)(O)CCC(=O)C(=O)O` [PPO, 2-carbonyl-4-(hydroxymethylphosphono) butyric acid], the Km [1] is reported as 38 mM, the Vmax [1] is reported as 46 mA/min and the Km [2] is reported as 35 mM. It also gave a Vmax [2] of 45 mA/min, a Km [3] of 49 mM and a Vmax [3] of 64 mA/min. It also gave a Km [4] of 31 mM and a Vmax [4] of 58 mA/min.
